Test results reported in US4721713A, “Process for inhibiting blood platelet aggregation and promoting vasodilation” (Toyo Jozo Kabushiki Kaisha, priority 1986, dated 1988).
Where two headings read alike, the source gives them in different places.

Assays:
[1] = tested on: platelet aggregation in platelet-rich rabbit plasma; assay: Inhibitory effect on blood platelet aggregation, effect in vitro (ADP-induced); assay type: cell-based; conditions: for inhibition at 100 µM: Oryctolagus cuniculus, Platelet, 0.05 h, read-out: Inhibition Ratio on Platelet Aggregation (Mean ± S.E)
Protocol: An aggregating agent, adenosine-5'-diphosphate (final concentration 2.5 μM), was added thereto and the platelet aggregating potential was measured with an aggregometer.

[2] = tested on: blood flow in left hind leg; assay: Vasodilating activity upon intra-arterial administration (perfused left hind leg); assay type: in vivo, Mongrel dogs; conditions: for Vasodilating Activity (relative to blood flow increase by papaverine 30 μg as 100%): 100 μg, i.a., mean ± S.E. for 3 animals
Protocol: Mongrel dogs anesthetized with urethane (450 mg/kg iv) and α-chlora-lose (45 mg/kg iv) after pretreatment with morphine (1.5 mg/kg, sc) were secured in a supine position. Blood from the right femoral artery was introduced into the left femoral artery through a circulation pump and the left hind leg was perfused under constant pressure by connection with a Starling's resistance in an exosomatic circulatory system. The prefusion pressure was set slightly higher than the mean blood pressure of each animal and the change in blood flow upon intra-arterial injection of the test compound was determined. The results, showing specific activity as compared with a value indicating the degree of increase in the amount of blood flow by papaverine (30 μg, iv) as 100%, are shown in Table 4.

Acute toxicity in rats = assay type: in vivo, male Wister rats; conditions: rat, in vivo; oral, rats
rats = assay: Acute toxicity in rats; assay type: in vivo, male Wister rats
[3] = tested on: number of platelets in the circulating blood; assay: Effect in vivo: number of platelets in circulating blood after E. coli lipopolysaccharide; parameters: species or system Male Wistar rats; conditions: for Number of Platelets, Exp. 1 / Number of Platelets, Exp. 2: ratio pre- and post-administration, LPS 5 mg/kg i.p., 3 hours
Protocol: Male Wistar rats, five animals in a group, were administered per orally the agents to be tested. After one hour, E. coli lipopolysaccharide (5 mg/kg) was injected intraperitoneally and 3 hours thereafter blood samples were collected and measured as to the number of platelets in the circulating blood to determine the ratio of platelets pre- and post-administration of the agents. The tests were repeated twice.

[4] = tested on: L5178Y murine lymphoblastoma; assay: Cytotoxicity; assay type: cell-based; conditions: 37° C. for 18 hours
Protocol: To L5178Y murine lymphoblastoma (2×10^4 cells/ml) suspended in a medium (27 ml) comprising Fischer's culture medium including 10% bovine serum, were added test agents in solution (0.3 ml) diluted with a culture medium and the material was incubated at 37° C. for 18 hours. Growth of the cells was determined by color change. Growth inhibition of the cells was not observed at any concentration of 20 μg/ml and 100 μg/ml of the compound of the present invention, and so no cytotoxicity was observed.

PAF-induced shock = assay: Effect against platelet activated factor (PAF)-induced shock; assay type: in vivo, Male ddY strain mice; conditions: 100 mg/kg p.o.
Protocol: Male ddY strain mice, male, 10 animals in a group, were administered per orally the compound of the present invention (100 mg/kg), and after one hour PAF (60 μg/kg) was administered intravenously to determine the ratio of mortality.

[5] = tested on: microorganism strains TA100, TA1535, WP2 uvr A, TA98, TA1537 and TA1538; assay: Mutagenicity, backward mutation test; assay type: cell-based
Protocol: A backward mutation test using microorganism strains TA100, TA1535, WP2 uvr A, TA98, TA1537 and TA1538 was performed by the method according to Iyer et al. [N. Y. Iyer and W. Szybalski, Appl. Microbiol., 6: 37 (1958)]. The test agents were tenfold diluted in six stages of concentration of 0.00333-333 μg/disc.

[6] = tested on: experimental disseminated intravascular coagulation; assay: Effect on disseminated intravascular coagulation (E. coli lipopolysaccharide infusion); assay type: in vivo, Male Wistar rats; conditions: 100 mg/kg p.o.
Protocol: Male Wistar rats, seven animals in a group, were administered per orally the agents (100 mg/kg) to be tested. After one hour, E. coli lipopolysaccharide (50 mg/kg) was continuously injected intravenously for four hours. A control group was given physiological saline intravenously under the same conditions.
Blood was collected immediately after finishing the injection to measure the number of platelets, the activated partial thromboplastin time, the prothrombin time and the amount of fibrinogen. In the control group, in which E. coli lipopolysaccharide was injected, a marked decrease in the number of platelets and the amount of fibrinogen and a marked prolongation of the activated partial thromboplastin time and the prothrombin time are observed.

[7] = tested on: arterial blood flow (vertebral, coronary, renal, femoral); assay: Vasodilating activity upon intravenous administration (regional arterial blood flow); assay type: in vivo, mongrel dog; conditions: FIG. 1
Excerpt: A cuff-type probe for measuring blood flow was applied to the left vertebral artery, the left anterior descending coronary artery, the left renal artery and the right femoral artery of a mongrel dog anesthetized in the same way as hereinabove and the blood flow was continuously measured. The blood pressure was monitored by a pressure transducer connected to a cannula inserted into the left femoral artery, and the heart rate was monitored through a tachometer by triggering the R-wave of lead II of an electrocardiograph. The agent to be tested was injected into the left venous cephalica. The results are shown in FIG. 1, in which the ordinate indicates the response ratio and the abscissa indicates dosages by intravenous administration, and in which

mice = assay: Acute toxicity in mice; assay type: in vivo; conditions: intravenous 100 mg/kg
Acute toxicity in mice = assay type: in vivo; conditions: mouse, in vivo
anoxia = assay: Protective effect against anoxia; assay type: in vivo, Male ddY strain mice; conditions: for Survival Time: 200 mg/kg p.o., mean ± S.E.
Protocol: The present compound and a control were administered per orally 30 or 60 mins. before the test.

[8] = final concentration 100 μM, ADP 2.5 μM
[9] = final concentration 100 μM, ADP 2.5 μM, 37° C. for 3 minutes
[10] = PAF 60 μg/kg i.v. after one hour
[11] = LPS 50 mg/kg i.v. over four hours

In the case of `CC(=O)Oc1ccccc1C(=O)O` [Acetyl salicylic acid, acetyl salicylic acid], the inhibition at 100 µM [1] is reported as -0.6 ± 0.6% and the “Inhibitory effect on blood platelet aggregation (in words)” value (from here on “Inhibitory effect”) [1, 8] is reported as “no inhibitory effect”.

With `Cc1nc(C)c(C)nc1C` [Tetramethylpyrazine, tetramethylpyrazine] the inhibition at 100 µM [1, 9] was 3 ± 1.6%, the “Inhibitory effect” value [1, 8] was “no inhibitory effect” and the “Vasodilating Activity (relative to blood flow increase by papaverine 30 μg as 100%)” value [2] was 19.3 ± 0.9%.

With `Cc1nc(O)c(C(C)C)nc1C.Cl` [Present compound, 2-hydroxy-3-isopropyl-5,6-dimethylpyrazine hydrochloride] the LD50 (Acute toxicity in rats) was 903 mg/kg, the Death (rats; intravenous 50 mg/kg, rats) was “no death was observed” and the “Dose attainable due to the solubility of the compound” value (rats; rat, in vivo, iv) was “up to 50 mg/kg”. For the same compound, the inhibition at 100 µM [1, 9] was 69.6 ± 5.4%, the “Inhibitory effect” value [1, 8] was “distinct inhibitory effect” and the “Vasodilating Activity (relative to blood flow increase by papaverine 30 μg as 100%)” value [2] was 100.7 ± 19.1%. The “Vasodilating activity compared with tetramethylpyrazine (in words)” value ([2]; intra-arterial) was “markedly stronger vasodilating activity than that of the control drug, tetramethylpyrazine”, the “Number of Platelets, Exp. 1” value ([3]; 100 mg/kg p.o.) was 58.2 ± 7.8% and the “Number of Platelets, Exp. 2” value ([3]; 100 mg/kg p.o.) was 55.9 ± 14.0%. For the same compound, the “Effect on decrease of platelet number (in words)” value ([3]; 100 mg/kg per orally, compared with ticlopidine 200 mg/kg oral) was “inhibits the decrease of platelet number, which is comparable to an oral dose of 200 mg/kg ticlopidine”, the “Growth inhibition of the cells” value ([4]; 20 μg/ml) was “not observed” and the “Growth inhibition of the cells” value ([4]; 100 μg/ml) was “not observed”. The “Action against PAF-induced shock (in words)” value (PAF-induced shock) was “protective action”, the “Mortality, Experiment 1” value (PAF-induced shock; [10]) was 1/10 and the “Mortality, Experiment 2” value (PAF-induced shock; [10]) was 3/10. For the same compound, the Mutagenesis ([5]; 0.00333-333 μg/disc, any concentration) was “No mutagenesis was found”, the “Mutagenesis under metabolic activation” value ([5]; metabolic activation using an S-9 mixture) was “no mutagenesis was observed” and the “Activated Partial Thromboplastin Time” value [6, 11] was 48.5 ± 7.4 s. For the same compound, the Fibrinogen [6, 11] was 77.2 ± 13.1 mg/dL, the “Platelet Number” value [6, 11] was 177 ± 51 × 10^3 /mm^3 and the “Prothrombin Time” value [6, 11] was 14.3 ± 1.4 s. The “Effect against all the factors tested (in words)” value ([6]; experimental disseminated intravascular coagulation) was “significant effect against all the factors tested”, the “Coronary arterial blood flow (in words)” value [7] was “increases blood flow in the vertebral artery, in the coronary artery” and the “Femoral arterial blood flow (in words)” value [7] was “increases blood flow in the vertebral artery, in the coronary artery and in the femoral artery”. For the same compound, the “Renal arterial blood flow (in words)” value [7] was “does not affect the renal arterial blood flow”, the “Selectivity for vertebral and coronary arterial blood flow (in words)” value [7] was “Selective effects on the vertebral arterial blood flow and the coronary arterial blood flow” and the “Vertebral arterial blood flow (in words)” value [7] was “increases blood flow in the vertebral artery”. The Death (mice) was “no death was observed”, the LD50 (Acute toxicity in mice; intravenous, read-out: LD50) was ~200 mg/kg and the LD50 (Acute toxicity in mice; oral, read-out: LD50 oral) was 555 mg/kg. The “Survival Time” value (anoxia; pretreatment time 30 min.) was 42.7 ± 1.6 s, the “Survival Time” value (anoxia; pretreatment time 60 min.) was 48.1 ± 1.9 s and the “Survival time (in words)” value (anoxia; pretreatment per orally) was “Significant prolongation of survival time”.

With `Clc1ccccc1CN1CCc2sccc2C1` [Ticlopidine, ticlopidine, reference compound] the inhibition at 100 µM [1, 9] was -1.2 ± 1.2%, the “Inhibitory effect” value [1, 8] was “no inhibitory effect” and the “Number of Platelets, Exp. 1” value ([3]; 200 mg/kg p.o.) was 57.9 ± 12.0%. The “Number of Platelets, Exp. 2” value ([3]; 200 mg/kg p.o.) was 63.4 ± 19.4%.
